These results are taken from patent US8895579B2, “Heterotricyclic AMPA receptor antagonists for treatment of epilepsy, pain, and other neurological disorders and diseases” (Northwestern University, priority 2010, dated 2014).

Where two headings read alike, the source gives them in different places.

By inhibition is commonly meant the share of the control response that was lost under treatment. A word on the IC50: it is the concentration at which inhibition is half-maximal.

Experiment [1] deals with NMDA receptor-mediated EPSCs, CA1 pyramidal cells. Kind of experiment: NMDA receptor EPSCs at Schaffer collateral-CA1 synapses, acute hippocampal slices. The class given is cell-based, mouse. The conditions noted are these: 20 μM; 5 min treatment. Here is the method:
For recordings from acute hippocampal slices, brains from P15-21 C57Bl/6 mice were sliced transversely (350 μm thickness) in a sucrose slicing solution containing (in mM) 85 NACl, 2.5 KCl, 1.25 NaH2PO4, 25 NaHCO3, 25 glucose, 75 sucrose, 0.5 CaCl2, 4 MgCl2, 0.5 Na ascorbate, 10 μM DL-APV and 100 μM kynurenic acid (pH 7.3). After slicing, the solution was exchanged with an incubation solution containing (in mM) 125 NaCl, 2.4 KCl, 1.2 NaH2PO4, 25 NaHCO3, 25 glucose: 1 CaCl2, 2 MgCl2, 0.5 Na ascorbate, 10 μM DL-APV and 100 μM kynurenic acid (pH 7.3) that was bubbled continuously with CO2-balanced O2 (carbogen). […] Recordings in voltage clamp mode used the CsF/CsCl internal solution and carbogenated external recording solution containing (in mM) 120 NaCl, 2.4 KCl, 2 MgCl2, 1 CaCl2, 25 NaHCO3, 1.2 NaH2PO4, 25 glucose, 10 μM bicuculline methiodide, 50 μM PTX and 50 μM D-APV (pH 7.3). […] NMDA EPSCs were validated by addition of D-APV (50 μM) at the end of each recording. Hippocampal CA1 or CA3 pyramidal cells were voltage clamped at −70 mV and stimulated with a monopolar electrode either the stratum radiatum or stratum lucidum, respectively. […] EPSC charge transfer, AP frequency, paired-pulse ratio and EPSC peak amplitude were analyzed with Mini-Analysis v6.03 (Synaptosoft, Decatur, Ga.) and Clampfit v10.0 (MDS, Sunnyvale, Calif.) software.

The target of experiment [2] is T1, recombinant homomeric GluA4 AMPA receptor (Rattus norvegicus, UniProt P19493).
T1 construct: expressed in transfected cells; host or cells: HEK293-T/17 (CRL-11268)
T1 sequence (P19493 21-902 isoform P19493-2 limits assumed): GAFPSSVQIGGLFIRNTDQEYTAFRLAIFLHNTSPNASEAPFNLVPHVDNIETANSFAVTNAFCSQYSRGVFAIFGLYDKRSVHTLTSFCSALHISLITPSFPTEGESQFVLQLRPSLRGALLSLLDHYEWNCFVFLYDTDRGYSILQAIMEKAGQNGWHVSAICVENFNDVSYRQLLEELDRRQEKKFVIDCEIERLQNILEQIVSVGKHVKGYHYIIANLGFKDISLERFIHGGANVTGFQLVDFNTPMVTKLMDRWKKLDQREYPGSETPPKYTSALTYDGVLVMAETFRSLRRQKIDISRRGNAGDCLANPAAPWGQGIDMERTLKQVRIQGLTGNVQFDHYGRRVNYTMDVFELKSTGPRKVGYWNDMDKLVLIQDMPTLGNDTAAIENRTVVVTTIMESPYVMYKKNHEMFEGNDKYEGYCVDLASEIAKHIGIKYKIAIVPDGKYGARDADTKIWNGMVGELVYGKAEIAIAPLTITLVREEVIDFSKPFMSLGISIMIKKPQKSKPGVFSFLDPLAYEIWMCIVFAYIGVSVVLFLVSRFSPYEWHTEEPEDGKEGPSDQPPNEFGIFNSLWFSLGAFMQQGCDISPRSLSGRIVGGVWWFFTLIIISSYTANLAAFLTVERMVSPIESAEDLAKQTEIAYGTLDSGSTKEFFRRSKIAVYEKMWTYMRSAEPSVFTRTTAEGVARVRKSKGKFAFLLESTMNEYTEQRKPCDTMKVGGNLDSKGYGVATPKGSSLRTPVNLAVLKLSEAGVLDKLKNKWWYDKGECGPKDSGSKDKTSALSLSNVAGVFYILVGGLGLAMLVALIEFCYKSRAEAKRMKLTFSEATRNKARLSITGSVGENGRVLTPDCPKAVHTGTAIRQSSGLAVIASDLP
In words: Whole-cell patch clamp of recombinant GluA4 receptors in HEK293-T/17 cells. The format is cell-based. Conditions: for inhibition at 30 µM: HEK293T/17, 30 μM. The procedure:
Cell Culture and Transfection. Human embryonic kidney cells expressing T-antigen, clone 17 (HEK293-T/17) (CRL-11268) were cultured at 37° C. with 5% CO2 in DMEM, including 100 μg/mL penicillin, 100 μg/mL streptomycin, and 10% heat-inactivated fetal bovine serum. Cells were split twice per week. For transfection, HEK293-T/17 cells were plated at 3×10^4 cells/cm^2 for pharmacology experiments and 5×10^3 cells/cm^2 for physiology experiments in fresh medium 24 h prior to transfection. Cells were transfected with AMPA or KA receptor plasmid cDNAs using Mirus Trans-IT transfection reagent (Minus Bio Corporation, Madison, Wis.) at a ratio of 1 μg cDNA: 3 μL Trans-1T reagent and maintained in transfection medium overnight followed by a media change the next day. Transfected cells were maintained in this medium until the experiment was conducted (48-72 h total post transfection).
Electrophysiology. For analysis of recombinant receptors, HEK293-T/17 cells were co-transfected with 0.2 μg of iGluR cDNA and 0.05 μg of eGFP. For heterologous GluA1/GluA2 receptors, the GluA1:GluA2 cDNA ratio was 1:6. Two to three days post-transfection, eGFP-expressing cells were lifted from the cover slip and voltage clamped in whole cell mode. The internal solution contained (in mM) 30 CsF, 110 CsCl, 10 HEPES, 4 NaCl, 5 EGTA and 0.5 CaCl2 (pH 7.3), while the extracellular solution contained (in mM) 140 NaCl, 10 glucose, 10 Cs-HEPES, 3 KCl, 2 CaCl2 and 1 MgCl2 (pH 7.3). Borosilicate patch electrodes were pulled and fire polished to 2-3 MO resistance. Lifted cells were maintained in a laminar stream of extracellular solution from a triple-barreled flow pipe, which was rapidly translated using a piezoceramic bimorph for fast application of glutamate or kainate alone or in combination with various antagonists (the 10-90% rise time of glutamate-evoked currents was ˜1 ms). IKM compounds were applied for three minutes with analysis performed on the final one minute of drug application.
Statistical analysis. At least three separate experiments were performed for each assay. For data involving three or more groups, a one-way analysis of variance (ANOVA) was performed with a Tukey-Kramer post hoc test for comparison amongst the groups. For data involving two groups, an unpaired student's t-test was performed; if the standard deviations between the two groups were statistically significant, a Welsh correction was added. If the data involving three or more groups or data involving two groups where multiple treatments were performed on the same sample, a repeated measures ANOVA and paired t-test were used, respectively, for analysis of significance. Dose-inhibition response curves were fitted, with the maximum value constrained to 100 and the minimum value constrained to values greater than or equal to zero, using the following equation in order to calculate the IC50 values: Response=minimum+(maximum−minimum)/(1+(IC50^hill slope/dose^hillslope)) All calculations for statistical analysis were carried out with Graphpad Prism4 software (La Jolla, Calif.). Data are presented as mean±S.E.M. with statistical significance set at p<0.05.
A general note: The patch-clamp technique gives a direct electrical read-out from membranes.

On to `O=C(O)C[C@@]12O[C@H]3C=CCN[C@H]3C1CN[C@H]2C(=O)O` (stereo partly drawn) [IKM-159], for which the “NMDA receptor-mediated EPSC amplitude, % of control amplitudes” value in experiment [1] came out at 99±3%. For the same compound, the inhibition at 30 µM in experiment [2] (50 μM KA, read-out: percent inhibition of kainate-evoked steady state GluA4 currents) worked out at 37 ± 4%; in experiment [2] (100 μM glutamate, 100 μM cyclothiazide, read-out: percent inhibition of steady-state GluA4 currents) it was 30 ± 5%; in experiment [2] (500 μM KA, read-out: percent inhibition of kainate-evoked steady state GluA4 currents), 21 ± 2%; in experiment [2] (500 μM glutamate, read-out: percent inhibition of GluA4 non-equilibrium peak currents) it was 44 ± 8%; in experiment [2] (10 mM glutamate, 100 μM cyclothiazide, read-out: percent inhibition of steady-state GluA4 currents), 7 ± 2%; in experiment [2] (10 mM glutamate, peak current, read-out: reduction from control GluA4 peak glutamate current amplitude (percent inhibition)) it was 40 ± 4%. Further, the remaining activity at 30 µM in experiment [2] (HEK293T/17, 30 μM, 10 mM glutamate 100 ms, pre-applied at least one minute, read-out: GluA4 peak current as percent of control amplitude) stood at 60 ± 4%. In addition, the IC50 in experiment [2] (currents evoked by 10 mM glutamate) is 60 ± 8 µM.
